Test results taken from patent US20230085307A1, “PYRIDAZINONE COMPOUND AND HERBICIDE” (NISSAN CHEMICAL CORPORATION, priority 2019, published 2023).

Legend:
southern crabgrass [1] = experiment: Test Example 4: herbicidal effect by soil treatment (Table 19, symbol F); format: in vivo, southern crabgrass (Digitaria ciliaris); settings: amount of applied herbicide 320 g/ha
Summary of the method: (§1)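 Seeds were sown in sterilized diluvial soil and covered with about 1.5 cm of soil. An emulsion formulation diluted with water to a predetermined herbicide amount was sprayed evenly onto the soil surface. Plants grew in a greenhouse at 25° C. to 30° C., and the effect was scored three weeks after application using criteria from an earlier test.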

wild oat [2] = experiment: Test Example 5: herbicidal effect by foliage application, plastic box (Table 20, symbol I); format: in vivo, wild oat (Avena fatua); settings: 320 g/ha, foliage application after 14-day growth, evaluated three weeks after application
Summary of the method: (§2)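 Plants sown in sterilized diluvial soil and grown 14 days in a greenhouse at 25° C to 30° C, then sprayed on the foliage with the compound's emulsion diluted in water to a predetermined herbicide amount. Injury to weeds and crops scored three weeks after application on a visual rating scale.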

chickweed [3] = experiment: Test Example 4: herbicidal effect by soil treatment (Table 19, symbol P); format: in vivo, common chickweed (Stellaria media); settings: amount of applied herbicide 320 g/ha
Summary of the method: as §1

chickweed [4] = experiment: Test Example 5: herbicidal effect by foliage application, plastic box (Table 20, symbol P); format: in vivo, common chickweed (Stellaria media); settings: 320 g/ha, foliage application after 14-day growth, evaluated three weeks after application
Summary of the method: as §2

rice flat sedge = experiment: Test Example 3: herbicidal effect by foliage application, Wagner pot (Table 18, symbol E); format: in vivo, rice flat sedge (Cyperus iria); settings: 320 g/ha
Summary of the method: (§3)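 Plants were sown in alluvial soil held under 0.1–0.5 cm standing water and grown 14 days in a greenhouse at 25–30 °C. An emulsifiable formulation, water-diluted to the set dose, was then sprayed onto the foliage, and effects were scored three weeks later using previously defined criteria.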

redroot pigweed [5] = experiment: Test Example 5: herbicidal effect by foliage application, plastic box (Table 20, symbol N); format: in vivo, redroot pigweed (Amaranthus retroflexus); settings: 320 g/ha, foliage application after 14-day growth, evaluated three weeks after application
Summary of the method: as §2

windgrass [6] = experiment: Test Example 4: herbicidal effect by soil treatment (Table 19, symbol L); format: in vivo, windgrass (Apera spica-venti); settings: amount of applied herbicide 320 g/ha
Summary of the method: as §1

green foxtail [7] = experiment: Test Example 4: herbicidal effect by soil treatment (Table 19, symbol G); format: in vivo, green foxtail (Setaria viridis); settings: amount of applied herbicide 320 g/ha
Summary of the method: as §1

barnyard grass [8] = experiment: Test Example 4: herbicidal effect by soil treatment (Table 19, symbol H); format: in vivo, barnyard grass (Echinochloa crus-galli); settings: amount of applied herbicide 320 g/ha
Summary of the method: as §1

velvetleaf [9] = experiment: Test Example 5: herbicidal effect by foliage application, plastic box (Table 20, symbol M); format: in vivo, velvetleaf (Abutilon theophrasti); settings: 320 g/ha, foliage application after 14-day growth, evaluated three weeks after application
Summary of the method: as §2

wild oat [10] = experiment: Test Example 4: herbicidal effect by soil treatment (Table 19, symbol I); format: in vivo, wild oat (Avena fatua); settings: amount of applied herbicide 320 g/ha
Summary of the method: as §1

Chinese sprangletop = experiment: Test Example 3: herbicidal effect by foliage application, Wagner pot (Table 18, symbol D); format: in vivo, chinese sprangletop (Leptochloa chinensis); settings: 320 g/ha
Summary of the method: as §3

blackgrass [11] = experiment: Test Example 4: herbicidal effect by soil treatment (Table 19, symbol J); format: in vivo, blackgrass (Alopecurus myosuroides); settings: amount of applied herbicide 320 g/ha
Summary of the method: as §1

Italian ryegrass [12] = experiment: Test Example 4: herbicidal effect by soil treatment (Table 19, symbol K); format: in vivo, Italian ryegrass (Lolium multiflorum); settings: amount of applied herbicide 320 g/ha
Summary of the method: as §1

Italian ryegrass [13] = experiment: Test Example 5: herbicidal effect by foliage application, plastic box (Table 20, symbol K); format: in vivo, Italian ryegrass (Lolium multiflorum); settings: 320 g/ha, foliage application after 14-day growth, evaluated three weeks after application
Summary of the method: as §2

lambsquarters [14] = experiment: Test Example 5: herbicidal effect by foliage application, plastic box (Table 20, symbol O); format: in vivo, lambsquarters (Chenopodium album); settings: 320 g/ha, foliage application after 14-day growth, evaluated three weeks after application
Summary of the method: as §2

barnyard grass [15] = experiment: Test Example 3: herbicidal effect by foliage application, Wagner pot (Table 18, symbol H); format: in vivo, barnyard grass (Echinochloa crus-galli); settings: 320 g/ha
Summary of the method: as §3

green foxtail [16] = experiment: Test Example 5: herbicidal effect by foliage application, plastic box (Table 20, symbol G); format: in vivo, green foxtail (Setaria viridis); settings: 320 g/ha, foliage application after 14-day growth, evaluated three weeks after application
Summary of the method: as §2

windgrass [17] = experiment: Test Example 5: herbicidal effect by foliage application, plastic box (Table 20, symbol L); format: in vivo, windgrass (Apera spica-venti); settings: 320 g/ha, foliage application after 14-day growth, evaluated three weeks after application
Summary of the method: as §2

lambsquarters [18] = experiment: Test Example 4: herbicidal effect by soil treatment (Table 19, symbol O); format: in vivo, lambsquarters (Chenopodium album); settings: amount of applied herbicide 320 g/ha
Summary of the method: as §1

barnyard grass [19] = experiment: Test Example 5: herbicidal effect by foliage application, plastic box (Table 20, symbol H); format: in vivo, barnyard grass (Echinochloa crus-galli); settings: 320 g/ha, foliage application after 14-day growth, evaluated three weeks after application
Summary of the method: as §2

velvetleaf [20] = experiment: Test Example 4: herbicidal effect by soil treatment (Table 19, symbol M); format: in vivo, velvetleaf (Abutilon theophrasti); settings: amount of applied herbicide 320 g/ha
Summary of the method: as §1

southern crabgrass [21] = experiment: Test Example 5: herbicidal effect by foliage application, plastic box (Table 20, symbol F); format: in vivo, southern crabgrass (Digitaria ciliaris); settings: 320 g/ha, foliage application after 14-day growth, evaluated three weeks after application
Summary of the method: as §2

blackgrass [22] = experiment: Test Example 5: herbicidal effect by foliage application, plastic box (Table 20, symbol J); format: in vivo, blackgrass (Alopecurus myosuroides); settings: 320 g/ha, foliage application after 14-day growth, evaluated three weeks after application
Summary of the method: as §2

persian speedwell [23] = experiment: Test Example 5: herbicidal effect by foliage application, plastic box (Table 20, symbol R); format: in vivo, Persian speedwell (Veronica persica); settings: 320 g/ha, foliage application after 14-day growth, evaluated three weeks after application
Summary of the method: as §2

persian speedwell [24] = experiment: Test Example 4: herbicidal effect by soil treatment (Table 19, symbol R); format: in vivo, Persian speedwell (Veronica persica); settings: amount of applied herbicide 320 g/ha
Summary of the method: as §1

redroot pigweed [25] = experiment: Test Example 4: herbicidal effect by soil treatment (Table 19, symbol N); format: in vivo, redroot pigweed (Amaranthus retroflexus); settings: amount of applied herbicide 320 g/ha
Summary of the method: as §1

Structure (SMILES)	Herbicidal effect by soil treatment, F: southern crabgrass (southern crabgrass [1])	herbicidal effect on I: wild oat (evaluation grade 0-5) (wild oat [2])	Herbicidal effect by soil treatment, P: chickweed (chickweed [3])	herbicidal effect on P: chickweed (evaluation grade 0-5) (chickweed [4])	herbicidal effect on rice flat sedge (E) (rice flat sedge)	herbicidal effect on N: redroot pigweed (evaluation grade 0-5) (redroot pigweed [5])	Herbicidal effect by soil treatment, L: windgrass (windgrass [6])	Herbicidal effect by soil treatment, G: green foxtail (green foxtail [7])	Herbicidal effect by soil treatment, H: barnyard grass (barnyard grass [8])	herbicidal effect on M: velvetleaf (evaluation grade 0-5) (velvetleaf [9])	Herbicidal effect by soil treatment, I: wild oat (wild oat [10])	herbicidal effect on Chinese sprangletop (D) (Chinese sprangletop)	Herbicidal effect by soil treatment, J: blackgrass (blackgrass [11])	Herbicidal effect by soil treatment, K: Italian ryegrass (Italian ryegrass [12])	herbicidal effect on K: Italian ryegrass (evaluation grade 0-5) (Italian ryegrass [13])	herbicidal effect on O: lambsquarters (evaluation grade 0-5) (lambsquarters [14])	herbicidal effect on barnyard grass (H) (barnyard grass [15])	herbicidal effect on G: green foxtail (evaluation grade 0-5) (green foxtail [16])	herbicidal effect on L: windgrass (evaluation grade 0-5) (windgrass [17])	Herbicidal effect by soil treatment, O: lambsquarters (lambsquarters [18])	further results
Cc1nn(C)c(=O)c(-c2c(-c3ccccc3)sc3c(Cl)cccc23)c1O [4-056]	0 (Herbicidal rate of 5% or less (almost no effect))	4 (Herbicidal rate of 70% or more and less than 90%)	3 (Herbicidal rate of 40% or more and less than 70%)	5 (Herbicidal rate of 90% or more (almost completely withered))	4 (Herbicidal rate of 70% or more and less than 90%)	5 (Herbicidal rate of 90% or more (almost completely withered))	3 (Herbicidal rate of 40% or more and less than 70%)	0 (Herbicidal rate of 5% or less (almost no effect))	0 (Herbicidal rate of 5% or less (almost no effect))	5 (Herbicidal rate of 90% or more (almost completely withered))	0 (Herbicidal rate of 5% or less (almost no effect))	4 (Herbicidal rate of 70% or more and less than 90%)	0 (Herbicidal rate of 5% or less (almost no effect))	0 (Herbicidal rate of 5% or less (almost no effect))	4 (Herbicidal rate of 70% or more and less than 90%)	3 (Herbicidal rate of 40% or more and less than 70%)	4 (Herbicidal rate of 70% or more and less than 90%)	1 (Herbicidal rate of 5% or more and less than 20%)	5 (Herbicidal rate of 90% or more (almost completely withered))	0 (Herbicidal rate of 5% or less (almost no effect))	herbicidal effect on H: barnyard grass (evaluation grade 0-5) (barnyard grass [19]): 3 (Herbicidal rate of 40% or more and less than 70%); Herbicidal effect by soil treatment, M: velvetleaf (velvetleaf [20]): 0 (Herbicidal rate of 5% or less (almost no effect)); herbicidal effect on F: southern crabgrass (evaluation grade 0-5) (southern crabgrass [21]): 2 (Herbicidal rate of 20% or more and less than 40%); herbicidal effect on J: blackgrass (evaluation grade 0-5) (blackgrass [22]): 4 (Herbicidal rate of 70% or more and less than 90%); herbicidal effect on R: persian speedwell (evaluation grade 0-5) (persian speedwell [23]): 5 (Herbicidal rate of 90% or more (almost completely withered)); Herbicidal effect by soil treatment, R: persian speedwell (persian speedwell [24]): 0 (Herbicidal rate of 5% or less (almost no effect)); Herbicidal effect by soil treatment, N: redroot pigweed (redroot pigweed [25]): 0 (Herbicidal rate of 5% or less (almost no effect))
CCCCOc1cccc(-c2sc3c(Cl)cccc3c2-c2c(O)c(C)nn(C)c2=O)c1 [4-068]	0 (Herbicidal rate of 5% or less (almost no effect))	0 (Herbicidal rate of 5% or less (almost no effect))	0 (Herbicidal rate of 5% or less (almost no effect))	5 (Herbicidal rate of 90% or more (almost completely withered))	3 (Herbicidal rate of 40% or more and less than 70%)	2 (Herbicidal rate of 20% or more and less than 40%)	0 (Herbicidal rate of 5% or less (almost no effect))	0 (Herbicidal rate of 5% or less (almost no effect))	0 (Herbicidal rate of 5% or less (almost no effect))	0 (Herbicidal rate of 5% or less (almost no effect))	0 (Herbicidal rate of 5% or less (almost no effect))	3 (Herbicidal rate of 40% or more and less than 70%)	0 (Herbicidal rate of 5% or less (almost no effect))	0 (Herbicidal rate of 5% or less (almost no effect))	0 (Herbicidal rate of 5% or less (almost no effect))	0 (Herbicidal rate of 5% or less (almost no effect))	4 (Herbicidal rate of 70% or more and less than 90%)	0 (Herbicidal rate of 5% or less (almost no effect))	0 (Herbicidal rate of 5% or less (almost no effect))	0 (Herbicidal rate of 5% or less (almost no effect))	herbicidal effect on H: barnyard grass (evaluation grade 0-5) (barnyard grass [19]): 0 (Herbicidal rate of 5% or less (almost no effect)); Herbicidal effect by soil treatment, M: velvetleaf (velvetleaf [20]): 0 (Herbicidal rate of 5% or less (almost no effect)); herbicidal effect on F: southern crabgrass (evaluation grade 0-5) (southern crabgrass [21]): 0 (Herbicidal rate of 5% or less (almost no effect)); herbicidal effect on J: blackgrass (evaluation grade 0-5) (blackgrass [22]): 0 (Herbicidal rate of 5% or less (almost no effect)); herbicidal effect on R: persian speedwell (evaluation grade 0-5) (persian speedwell [23]): 5 (Herbicidal rate of 90% or more (almost completely withered)); Herbicidal effect by soil treatment, R: persian speedwell (persian speedwell [24]): 0 (Herbicidal rate of 5% or less (almost no effect)); Herbicidal effect by soil treatment, N: redroot pigweed (redroot pigweed [25]): 3 (Herbicidal rate of 40% or more and less than 70%)
